Experiment [1] concerns multidrug resistant P. falciparum strain Dd2. The experiment can be described thus: SYBR Green I Plasmodium growth inhibition assay (fixed concentration screen and EC50). The format is cell-based, Plasmodium falciparum. As to conditions: for DD2: test dataset (macrocyclic library), class label, 1 µM; for inhibition at 1 µM: Pf Dd2, 1 µM, 72 h, read-out: Inhibition One-point (%). Here is the method: P. falciparum cultures were maintained under standard culture conditions in RPMI 1640 medium supplemented with 25 mM HEPES, pH 7.4, 26 mM NaHCO3, 2% dextrose, 15 mg/L hypoxanthine, 25 mg/L gentamycin, and 0.5% Albumax II maintained at 37°C in 5% CO2 and 95% air. Initially, a fixed concentration phenotypic screening was performed against multidrug resistant P. falciparum strain Dd2 (resistant to chloroquine, pyrimethamine, and mefloquine) using a SYBR Green I assay ([Johnson et al., 2007]; [Vossen et al., 2010]). An EVO-150 robotic liquid handler (Tecan, Morrisville, NC) was used to aliquot compounds at a final concentration of 1 µM followed by addition of culture to 96-well plates (Greiner, Monroe, NC) at 1% parasitemia, 2% hematocrit. Plates were incubated for 72 h at 37°C in a humidified atmosphere 5% CO2/95% air prior to freezing. Plates were subsequently thawed and 1X SYBR Green I was added with lysis buffer (20 mM Tris-HCl, 0.08% saponin, 5 mM EDTA, 0.8% Triton X-100). After incubation at room temperature in dark for 1 h, the fluorescent emission was measured at excition and emission wavelengths of 485 nm and 530 nm, respectively, using a BioTek Synergy neo2 (Winooski, VT) plate reader. […] Curve fitting was performed using GraphPad Prism and EC50 value was determined for each compound.

Another experiment concerns Pf (DD2). The experiment can be described thus: Validation dataset: previously performed HTS at University of Central Florida, Chakrabarti Laboratory. The conditions noted are these: class label. The class given is cell-based, Plasmodium falciparum. Here is the method:
The validation dataset consists of the results from previously performed HTS in University of Central Florida at the Chakrabarti Laboratory, consisting of natural-products, kinase inhibitors from commercial vendors Asinex (Winston-Salem, NC)and ChemDiv (San Diego, CA) libraries. This dataset contains 4,497 molecules and their inhibition property. […] Using this external validation dataset, the realistic capabilities of the model are evaluated in the validation process. The raw data supporting the conclusions of this manuscript will be made available by the authors, without any restriction, to any qualified researcher (Supplementary Material 4).

For experiment [2], the system named is human hepatoma cell line HepG2. The experiment can be described thus: MTS based cytotoxicity assay (counter-screen for selectivity). The format is cell-based. The conditions noted are these: 48 h. Here is the method: Selectivity was determined by counter-screening against human hepatoma cell line HepG2 in a MTS (3-(4,5-Dimethylthiazol-2-yl)-5-(3-carboxymethoxyphenyl)-2-(4-sulfophenyl)-2H-tetrazolium) based cytotoxicity assay (CellTiter 96® Aqueous One, Promega, Madison, WI) ([Riss et al., 2004]). Briefly, microtiter plates were seeded with 1,500 cells per well in a 384 well plate and incubated for 24 h at 37°C in 5% CO2/95% air atmosphere. The next day, compounds were added at seven different serially diluted concentrations starting at 25 µM d incubated for additional 48 h at stated conditions. MTS solution was next added to each well, incubated for additional 3 h at 37°C, and absorbance was read at 490 nm using BioTek Synergy neo 2 plate reader. Untreated cells served as control. Curve fitting was performed using GraphPad Prism and EC50 value was determined.
(In general: Formazan colour is commonly taken as a measure of viable cells.)

Another experiment deals with P. falciparum Dd2. Put plainly: Stage-specific activity assay (Giemsa smears, YOYO-1 flow cytometry). The class given is cell-based, Plasmodium falciparum. The conditions noted are these: synchronized Dd2, compound at 3X EC50 added at 6, 18, 30, 42 hpi. Here is the method: P. falciparum Dd2 cell line was synchronized using a combination of 5% sorbitol and magnetic column separation as described ([Roberts et al., 2016]). Cultures at 2% parasitemia and 2% hematocrit were added to microtiter plate wells and measurements began 6 h post-invasion (6 hpi). Hit compounds were added at 3X EC50 concentration at specified time points. Controls are DHA (3X EC50) and untreated cultures. Giemsa-stained thin smears were made for each time point and an aliquot of the culture was fixed for flow cytometric analysis using 0.04% glutaraldehyde in PBS. After fixing and aspirating, cells were permeabilized with 0.25% Triton-100 followed by treatment with RNase (0.05 mg/ml) for 3 h. Next, YOYO 1 (10.24 µM) fluorescent dye was added and samples were analyzed ([Bouillon et al., 2013]) using Beckman Coulter (Indianapolis, IN) CytoFlex S flowcytometer.

The next experiment has as its system 3D7. Details: unit not given here. As to conditions: cited from earlier work.
The mark [3] stands for this setting: repurposing dataset, 179 approved drugs, ref https://www.nature.com/articles/nchembio806.

“Also recorded” adds a separate entry of the source. Where two headings read alike, the source gives them in different places.

On to `CC(=O)N1CCCN(Cc2ccccc2)CCN(C(=O)c2ccccc2F)Cc2cc(F)c(F)cc21`, for which the DD2 in experiment [1] is recorded as 0 (zero if otherwise).

As to `COc1ccc(-c2nc3n(n2)C(c2cccnc2)C2=C(CC(C)(C)CC2=O)N3)cc1` (stereo not drawn), the DD2 in the experiment on Pf (DD2) is 0 (zero if otherwise).

As to `C=CCN1C(=O)COc2ccc(NC(=O)c3oc4cc(C)ccc4c3C)cc21`, the DD2 with Pf (DD2) is given as 0 (zero if otherwise).

As for `C=CCOC(=O)C1=C(C)NC(=S)NC1c1ccc(C(C)(C)C)cc1` (stereo not drawn), the DD2 in the experiment on Pf (DD2) is recorded as 0 (zero if otherwise).

As for `C[C@H]1C(=O)NCCOc2ccccc2C(=O)N[C@H](C(=O)NCCCc2ccccc2)CCC(=O)N1C`, the DD2 in experiment [1] was 0 (zero if otherwise).

For the molecule `Cc1noc(C2CCCN2C(=O)CN2CCC3(CCCCc4ccccc4OCCCNC3=O)CC2)n1` (stereo not drawn), in experiment [1], the DD2 was 0 (zero if otherwise).

As to `Cn1cnnc1C1CCCCN1C(=O)CN1CCC2(CCCCc3ccccc3OCCCNC2=O)CC1` (stereo not drawn), in experiment [1], the DD2 is reported as 0 (zero if otherwise).

Regarding `Cc1cc(C)n(Cc2c(C(=O)N3CCC4(CCCCOC[C@@H]5CCCN5C(=O)c5cccc(c5)OC4)CC3)noc2C)n1` [DC-5921, CC1=NN(CC2=C(C)ON=C2C(=O)N2CCC3(CC2)CCCCOC[C@@H]2CCCN2C(=O)C2=CC(OC3)=CC=C2)C(C)=C1], the EC50 in experiment [2] was above 25 µM; in experiment [1] (Plasmodium falciparum, Pf Dd2, 72 h, spread given in nM), 0.9 nM. Further, the Stage specific activity result in the experiment with P. falciparum Dd2 was “active in early stages, late Troph and early schizont; also recorded: inhibit the early stages”. Also, the inhibition at 1 µM in experiment [1] (Plasmodium falciparum) is 90%.

`CCc1nc2ccccc2c(C(=O)N2CCC3(CCCCOCCNC(=O)c4ccccc4OC3)CC2)c1C` [DC-5931, CCC1=NC2=C(C=CC=C2)C(C(=O)N2CCC3(CC2)CCCCOCCNC(=O)C2=C(OC3)C=CC=C2)=C1C]: the EC50 in experiment [2] is above 25 µM. In the experiment on P. falciparum Dd2, the Stage specific activity entry is reported as “mostly active in early stages; also recorded: inhibit the early stages”. In addition, the inhibition at 1 µM in experiment [1] (Plasmodium falciparum) was 80%.

As for `CN1CCOc2ccccc2CCCCCC2(CCN(C(=O)[C@@H](N)c3ccccc3)CC2)C1=O` [DC-9235, CN1CCOC2=C(CCCCCC3(CCN(CC3)C(=O)[C@@H](N)C3=CC=CC=C3)C1=O)C=CC=C2], in experiment [2], the EC50 was above 25 µM. For the same molecule, the inhibition at 1 µM in experiment [1] (Plasmodium falciparum) came to 92%.

Regarding `CN1CCOc2ccccc2CCCCCC2(CCN(C(=O)[C@H](N)c3ccccc3)CC2)C1=O` [DC-9239, CN1CCOC2=C(CCCCCC3(CCN(CC3)C(=O)[C@H](N)C3=CC=CC=C3)C1=O)C=CC=C2], the EC50 in experiment [2] worked out at 24.2 µM. The inhibition at 1 µM in experiment [1] (Plasmodium falciparum) came to 79%.

Take `O=C1NC(=S)S/C1=C\c1ccc(O)cc1` [O=C1NC(=S)S/C1=C\c1ccc(O)cc1]: the DD2 in the experiment on Pf (DD2) is reported as 0 (zero if otherwise).

With `CC[C@@H](C(=O)[C@@H](C)[C@@H](O)[C@H](C)[C@@H]1O[C@@H]([C@@H](CC)C(=O)O)CC[C@@H]1C)[C@H]1O[C@]2(C=C[C@@H](O)[C@]3(CC[C@@](C)([C@H]4CC[C@](O)(CC)[C@H](C)O4)O3)O2)[C@H](C)C[C@@H]1C` [Salinomycin], the 3D7 in the experiment on 3D7 (setting [3]) was 99.1.

For the molecule `OCc1cc(C(O)CNCCCCCCOCCCCc2ccccc2)ccc1O` (stereo not drawn) [Salmeterol xinafoate], the 3D7 in the experiment on 3D7 was 72.5.

For the molecule `CC(=O)[O][Pt]([NH2])([Cl])([Cl])([NH]C1CCCCC1)[O]C(C)=O` [Satraplatin], the 3D7 in the experiment on 3D7 (setting [3]) was 87.3.

Consider `CCCCCCCCCCCCCCCCCC[N+](C)(C)C.[Cl-]` [Stearyltrimethylammonium chloride], for which the 3D7 in the experiment with 3D7 (setting [3]) is 78.6.

`CCCCCCCCNC(C)C(O)c1ccc(SC(C)C)cc1` (stereo not drawn) [Suloctidil]: the 3D7 in the experiment with 3D7 (setting [3]) was 97.3.

As for `CO[C@@H]1[C@H](OC(=O)NC(=O)CCl)CC[C@]2(CO2)[C@H]1[C@@]1(C)O[C@@H]1CC=C(C)C` [TNP-470], in the experiment on 3D7 (setting [3]), the 3D7 was 67.

`CC/C(=C(\c1ccccc1)c1ccc(OCCN(C)C)cc1)c1ccccc1` [Tamoxifen]: the 3D7 with 3D7 (setting [3]) is given as 97.5.

With `CC(C)N1CCN(c2ccc(OCC3COC(Cn4cncn4)(c4ccc(Cl)cc4Cl)O3)cc2)CC1` (stereo not drawn) [Terconazole], the 3D7 with 3D7 (setting [3]) was 56.

As to `Nc1nc2nc[nH]c2c(=S)[nH]1` [Thioguanine], the 3D7 with 3D7 (setting [3]) is 68.7.

As to `CN(C)C(=S)SSC(=S)N(C)C` [Thiram], in the experiment on 3D7 (setting [3]), the 3D7 is given as 96.7.

On to `CCCCCCCCCCCCCCCC[N+](C)(C)CCN(Cc1ccc(OC)cc1)c1ncccn1` [Thonzonium bromide], for which, in the experiment on 3D7 (setting [3]), the 3D7 is given as 97.5.

Regarding `CCN(CC)CCOc1ccc2c(c1)C(=O)c1cc(OCCN(CC)CC)ccc1-2` [Tilorone], in the experiment on 3D7 (setting [3]), the 3D7 is recorded as 98.9.

As for `CC[C@@]1(O)C(=O)OCc2c1cc1n(c2=O)Cc2cc3c(CN(C)C)c(O)ccc3nc2-1` [Topotecan], in the experiment with 3D7 (setting [3]), the 3D7 was 80.1.

With `Nc1nc(N)c2nc(-c3ccccc3)c(N)nc2n1` [Triamterene], the 3D7 with 3D7 (setting [3]) is 79.4.

For the molecule `CCC(C)C(C(=O)OCC[N+](C)(CC)CC)c1ccccc1` (stereo not drawn) [Valethamate], the 3D7 in the experiment with 3D7 (setting [3]) is 79.9.

Turning to `COc1ccc(CCN(C)CCCC(C#N)(c2ccc(OC)c(OC)c2)C(C)C)cc1OC` (stereo not drawn) [Verapamil], in the experiment on 3D7 (setting [3]), the 3D7 was 98.

Consider `C=Cc1c(C)c2cc3nc(cc4[nH]c(cc5nc(cc1[nH]2)C(C)=C5CCC(=O)O)c(CCC(=O)OC)c4C)[C@@]1(C)C3=CC=C(C(=O)OC)[C@H]1C(=O)OC` [Verteporfin], for which the 3D7 in the experiment on 3D7 (setting [3]) is given as 95.4.

On to `CC[C@]1(O)C[C@@H]2CN(CCc3c([nH]c4ccccc34)[C@@](C(=O)OC)(c3cc4c(cc3OC)N(C)[C@H]3[C@@](O)(C(=O)OC)[C@H](OC(C)=O)[C@]5(CC)C=CCN6CC[C@]43[C@@H]65)C2)C1` [Vinblastine], for which, in the experiment with 3D7 (setting [3]), the 3D7 is recorded as 66.7.

With `CC[C@]1(O)C[C@H]2CN(CCc3c([nH]c4ccccc34)[C@@](C(=O)OC)(c3cc4c(cc3OC)N(C=O)[C@H]3[C@@](O)(C(=O)OC)[C@H](OC(C)=O)[C@]5(CC)C=CCN6CC[C@]43[C@@H]65)C2)C1` [Vincristine], the 3D7 with 3D7 (setting [3]) is 69.5.

In the case of `CC[C@]1(O)C[C@@H]2CN(CCc3c([nH]c4ccccc34)[C@@](C(=O)OC)(c3cc4c(cc3OC)N(C)[C@H]3[C@@](O)(C(N)=O)[C@H](O)[C@]5(CC)C=CCN6CC[C@]43[C@@H]65)C2)C1` [Vindesine], the 3D7 in the experiment on 3D7 is given as 81.9.

`CCC1=C[C@@H]2CN(C1)Cc1c([nH]c3ccccc13)[C@@](C(=O)OC)(c1cc3c(cc1OC)N(C)[C@H]1[C@@](O)(C(=O)OC)[C@H](OC(C)=O)[C@]4(CC)C=CCN5CC[C@]31[C@@H]54)C2` [Vinorelbine]: in the experiment on 3D7 (setting [3]), the 3D7 is 97.7.

Turning to Atovaquone, the 3D7 with 3D7 (setting [3]) is 97.

With Brilliant green, in the experiment on 3D7 (setting [3]), the 3D7 is reported as 93.5.

In the case of Carboplatin, in the experiment with 3D7 (setting [3]), the 3D7 is 76.4.

Corticotropin A: in the experiment with 3D7 (setting [3]), the 3D7 is 86.4.

As to Doxycycline, the 3D7 in the experiment on 3D7 (setting [3]) is given as 59.7.

As for Gramicidin A, the 3D7 with 3D7 (setting [3]) is on record as 98.5.

As for Heparin, the 3D7 in the experiment with 3D7 (setting [3]) was 79.9.

Regarding Meclocycline, the 3D7 with 3D7 (setting [3]) is 68.7.

For Phenylmercuric acetate, the 3D7 with 3D7 is reported as 97.7.

Turning to Plicamycin, the 3D7 with 3D7 (setting [3]) is reported as 98.2.

Take Tolonium chloride: in the experiment on 3D7, the 3D7 is recorded as 99.5.

As usually defined, the EC50 is the concentration giving half of the maximal effect. What is called inhibition is the change of the read-out against control, counted positive when it falls.

Values taken from article PMC6974622, “DeepMalaria: Artificial Intelligence Driven Discovery of Potent Antiplasmodials” (Frontiers in Pharmacology, 2020).
